Consider one molecule from ChEMBL document CHEMBL3396968, “Isolation and cytotoxicity evaluation of taxanes from the barks of Taxus wallichiana var. mairei” (Bioorg Med Chem Lett, 2015).

One experiment deals with MCF7. The experiment in a line: Antiproliferative activity against human MCF7 cells assessed as growth inhibition after 48 hrs by sulforhodamine B assay. The format is functional, cell-based. The settings on record: MCF7, 48 h. For orientation: In SRB staining, fixed cells bind dye roughly in proportion to their protein.
For a further experiment, the system named is HepG2. Description: Antiproliferative activity against human HepG2 cells assessed as growth inhibition after 48 hrs by sulforhodamine B assay. The format is functional, cell-based. The settings on record: HepG2, 48 h.
The test system of a further experiment is A2780. The experiment in a line: Antiproliferative activity against human A2780 cells assessed as growth inhibition after 48 hrs by sulforhodamine B assay. Format: functional, cell-based. The settings on record: A2780, 48 h.
A short description of experiment [1]: Antiproliferative activity against human A549/CDDP cells assessed as growth inhibition after 48 hrs by sulforhodamine B assay. The format is functional, cell-based. Conditions: A549, 48 h.
Experiment [2] can be described thus: Antiproliferative activity against human HCT8/VCT cells assessed as growth inhibition after 48 hrs by sulforhodamine B assay. The format is functional, cell-based.
The nature of experiment [3]: Antiproliferative activity against human HCT8 cells assessed as growth inhibition after 48 hrs by sulforhodamine B assay. The format is functional, cell-based. The settings on record: HCT-8, 48 h.
Another experiment concerns SW480. Description: Antiproliferative activity against human SW480 cells assessed as growth inhibition after 48 hrs by sulforhodamine B assay. The format is functional, cell-based. The settings on record: SW480, 48 h.
Experiment [4] can be described thus: Antiproliferative activity against human MCF7/DX cells assessed as growth inhibition after 48 hrs by sulforhodamine B assay. The format is functional, cell-based.
The test system of a further experiment is A549. Description: Antiproliferative activity against human A549 cells assessed as growth inhibition after 48 hrs by sulforhodamine B assay. Format: functional, cell-based. Conditions: A549, 48 h.
A short description of experiment [5]: Antiproliferative activity against human A2780/TAX cells assessed as growth inhibition after 48 hrs by sulforhodamine B assay. The format is functional, cell-based.
A short description of experiment [6]: Antiproliferative activity against mouse NIH/3T3 cells assessed as growth inhibition after 48 hrs by sulforhodamine B assay. The settings on record: NIH3T3, 48 h. Format: cell-based.

In the case of `C=C1[C@@H](O)C[C@H](OC(C)=O)[C@@]2(COC(=O)c3ccccc3)[C@@H](OC(C)=O)[C@H](OC(C)=O)[C@@]3(O)[C@]4(C)OC[C@]3(C)C(CC4=O)[C@@H](OC(C)=O)[C@H]12` [TAXININE M], the IC50 (with MCF7; with HepG2; in the experiment on A2780; in experiment [1]; in experiment [2]; in experiment [3]) was over 25 µM each time. For the same molecule, the IC50 (as a rule, the midpoint of a concentration-inhibition curve) in the experiment on SW480 is 16 µM; in experiment [4], over 25 µM; in the experiment on A549 it was 12 µM; in [5] it was over 25 µM; in experiment [6], over 25 µM.
